Data published in PubChem BioAssay AID256 (DTP/NCI, 2004).
“And” between values parts separate entries of the source, which are not always exact repeats. Identical values can stand only once. Inconclusive results and toxic doses are left out.

Test system: CD2F1 mice, L1210 leukemia ip, survival T/C
Experiment: NCI In Vivo Anticancer Drug Screen. Data for tumor model L1210 Leukemia (intraperitoneal) in CD2F1 (CDF1) mice
Conditions: higher = longer survival
Procedure, shortened: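 Tumor-bearing mice (transplanted tumor) were split into treated and vehicle control groups, and the measured endpoint of each treated group was divided by that of its vehicle controls.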

[1] = endpoint: mean survival time, dose: 100.0 mg/kg/injection, schedule: Q04DX003 (ip), vehicle: saline
[2] = endpoint: mean survival time, dose: 100.0 mg/kg/injection, schedule: Q01DX001 (ip), vehicle: saline with Tween-80
[3] = endpoint: mean survival time, dose: 200.0 mg/kg/injection, schedule: Q01DX001 (ip), vehicle: saline with Tween-80
[4] = endpoint: mean survival time, dose: 400.0 mg/kg/injection, schedule: Q01DX001 (ip), vehicle: saline with Tween-80
[5] = endpoint: mean survival time, dose: 100.0 mg/kg/injection, schedule: Q01DX001 (ip), vehicle: saline
[6] = endpoint: mean survival time, dose: 200.0 mg/kg/injection, schedule: Q01DX001 (ip), vehicle: saline
[7] = endpoint: mean survival time, dose: 100.0 mg/kg/injection, schedule: Q04DX002 (ip), vehicle: saline with Tween-80
[8] = endpoint: mean survival time, dose: 200.0 mg/kg/injection, schedule: Q04DX002 (ip), vehicle: saline with Tween-80
[9] = endpoint: mean survival time, dose: 100.0 mg/kg/injection, schedule: Q01DX009 (ip), vehicle: saline with Tween-80
[10] = endpoint: mean survival time, dose: 200.0 mg/kg/injection, schedule: Q01DX009 (ip), vehicle: saline with Tween-80
[11] = endpoint: mean survival time, dose: 400.0 mg/kg/injection, schedule: Q01DX009 (ip), vehicle: saline with Tween-80
[12] = endpoint: mean survival time, dose: 100.0 mg/kg/injection, schedule: Q04DX003 (ip), vehicle: saline with Tween-80
[13] = endpoint: mean survival time, dose: 200.0 mg/kg/injection, schedule: Q04DX003 (ip), vehicle: saline with Tween-80
[14] = endpoint: mean survival time, dose: 400.0 mg/kg/injection, schedule: Q04DX003 (ip), vehicle: saline with Tween-80

Compound: Nc1c2ccccc2c[n+]2ccccc12
- T/C (endpoint: mean survival time, dose: 12.5 mg/kg/injection, schedule: Q04DX003 (ip), vehicle: saline): 112 % of control
- T/C (endpoint: mean survival time, dose: 25.0 mg/kg/injection, schedule: Q04DX003 (ip), vehicle: saline): 124 % of control
- T/C (endpoint: mean survival time, dose: 50.0 mg/kg/injection, schedule: Q04DX003 (ip), vehicle: saline): 114 % of control
- T/C [1]: 121 % of control

Compound: O=S(CCCCO)c1ccccc1 (configuration not stated)
- T/C (endpoint: mean survival time, dose: 50.0 mg/kg/injection, schedule: Q04DX002 (ip), vehicle: saline): 101 % of control
- T/C (endpoint: mean survival time, dose: 100.0 mg/kg/injection, schedule: Q04DX002 (ip), vehicle: saline): 104 % of control
- T/C (endpoint: mean survival time, dose: 200.0 mg/kg/injection, schedule: Q04DX002 (ip), vehicle: saline): 96 % of control

Compound: CCC1(O)C(=O)OCc2c1cc1n(c2=O)Cc2cc3ccc(C=O)cc3nc2-1 (configuration not stated)
- T/C (endpoint: median survival time, dose: 4.0 mg/kg/injection, schedule: Q04DX002 (ip), vehicle: saline with Tween-80): 98 % of control
- T/C (endpoint: median survival time, dose: 8.0 mg/kg/injection, schedule: Q04DX002 (ip), vehicle: saline with Tween-80): 96 % of control
- T/C (endpoint: median survival time, dose: 16.0 mg/kg/injection, schedule: Q04DX002 (ip), vehicle: saline with Tween-80): 98 % of control
- T/C (endpoint: median survival time, dose: 32.0 mg/kg/injection, schedule: Q04DX002 (ip), vehicle: saline with Tween-80): 102 % of control

Compound: O=C(C1=CN(CCCO)CCC1)c1cc2ccccc2[nH]1
- T/C [2]: 94 % of control
- T/C [3]: 94 % of control
- T/C [4]: 97 % of control

Compound: COc1ccc([I+]c2ccc(OC)cc2)cc1
- T/C (endpoint: mean survival time, dose: 1.5 mg/kg/injection, schedule: Q01DX009 (ip), vehicle: saline with Tween-80): 101 % of control
- T/C (endpoint: mean survival time, dose: 3.0 mg/kg/injection, schedule: Q01DX009 (ip), vehicle: saline with Tween-80): 104 % of control
- T/C (endpoint: mean survival time, dose: 6.0 mg/kg/injection, schedule: Q01DX009 (ip), vehicle: saline with Tween-80): 107 % of control
- T/C (endpoint: mean survival time, dose: 12.5 mg/kg/injection, schedule: Q04DX003 (ip), vehicle: saline with Tween-80): 97 % of control
- T/C (endpoint: mean survival time, dose: 25.0 mg/kg/injection, schedule: Q04DX003 (ip), vehicle: saline with Tween-80): 93 % of control
- T/C (endpoint: mean survival time, dose: 50.0 mg/kg/injection, schedule: Q04DX003 (ip), vehicle: saline with Tween-80): 93 % of control

Compound: COc1ccc(-n2cc(C#N)c3c(C)cc(C)nc32)cc1
- T/C [5]: 100 % of control
- T/C [6]: 96 % of control
- T/C (endpoint: mean survival time, dose: 400.0 mg/kg/injection, schedule: Q01DX001 (ip), vehicle: saline): 87 % of control

Compound: O=C(COc1ccc(Cl)cc1C(=O)O)NCc1ccc(NC(=O)Nc2ccc(S(=O)(=O)F)cc2)cc1
- T/C [2]: 96 % of control
- T/C [3]: 91 % of control
- T/C [4]: 91 % of control

Compound: COc1nc2c(N)ncnc2n1C1OC(CO)C(O)C1O (configuration not stated)
- T/C [7]: 103 % of control
- T/C [8]: 103 % of control
- T/C (endpoint: mean survival time, dose: 400.0 mg/kg/injection, schedule: Q04DX002 (ip), vehicle: saline with Tween-80): 96 % of control

Compound: COc1ccc(OC)c(-c2csc(=O)s2)c1
- T/C (endpoint: mean survival time, dose: 25.0 mg/kg/injection, schedule: Q04DX002 (ip), vehicle: Klucel (hydroxypropylcellulose) (HPC)): 107 % of control
- T/C (endpoint: mean survival time, dose: 50.0 mg/kg/injection, schedule: Q04DX002 (ip), vehicle: Klucel (hydroxypropylcellulose) (HPC)): 96 % of control
- T/C (endpoint: mean survival time, dose: 100.0 mg/kg/injection, schedule: Q04DX002 (ip), vehicle: Klucel (hydroxypropylcellulose) (HPC)): 102 % of control
- T/C (endpoint: mean survival time, dose: 200.0 mg/kg/injection, schedule: Q04DX002 (ip), vehicle: Klucel (hydroxypropylcellulose) (HPC)): 102 % of control
- T/C (endpoint: mean survival time, dose: 400.0 mg/kg/injection, schedule: Q04DX002 (ip), vehicle: Klucel (hydroxypropylcellulose) (HPC)): 94 % of control

Compound: CN(C=O)c1ccccc1C(=O)O
- T/C [2]: 98 % of control
- T/C [9]: 96 % of control
- T/C [3]: 101 % of control
- T/C [10]: 91 % of control
- T/C [4]: 98 % of control
- T/C [11]: 97 % of control

Compound: c1ccc(-c2nn[nH]n2)nc1
- T/C [5]: 101 % of control
- T/C [1]: 90 % of control and 104 % of control
- T/C [6]: 101 % of control
- T/C (endpoint: mean survival time, dose: 200.0 mg/kg/injection, schedule: Q04DX003 (ip), vehicle: saline): 102 % of control and 104 % of control
- T/C (endpoint: mean survival time, dose: 400.0 mg/kg/injection, schedule: Q04DX003 (ip), vehicle: saline): 94 % of control and 108 % of control

Compound: CN(C)Cc1ncccc1O
- T/C (endpoint: mean survival time, dose: 50.0 mg/kg/injection, schedule: Q01DX009 (ip), vehicle: suspension in saline): 110 % of control
- T/C (endpoint: mean survival time, dose: 100.0 mg/kg/injection, schedule: Q01DX009 (ip), vehicle: suspension in saline): 108 % of control
- T/C (endpoint: mean survival time, dose: 200.0 mg/kg/injection, schedule: Q01DX009 (ip), vehicle: suspension in saline): 112 % of control

Compound: O=C1CCCCC1C1(O)C(=O)Nc2ccccc21 (configuration not stated)
- T/C (endpoint: mean survival time, dose: 50.0 mg/kg/injection, schedule: Q01DX009 (ip), vehicle: saline with Tween-80): 91 % of control
- T/C [9]: 95 % of control
- T/C [10]: 87 % of control

Compound: NC(=O)Cn1cnnn1
- T/C [2]: 102 % of control
- T/C [9]: 98 % of control
- T/C [12]: 101 % of control
- T/C [3]: 100 % of control
- T/C [10]: 101 % of control
- T/C [13]: 95 % of control
- T/C [4]: 96 % of control
- T/C [11]: 98 % of control
- T/C [14]: 95 % of control

Compound: C1CCC(C2CCCC[N-]2)[N-]C1.CCC(C)C([NH-])C(=O)O.[Cl][Pt] (configuration not stated)
- T/C (endpoint: median survival time, dose: 10.0 mg/kg/injection, schedule: Q04DX003 (ip), vehicle: saline): 101 % of control
- T/C (endpoint: median survival time, dose: 20.0 mg/kg/injection, schedule: Q04DX003 (ip), vehicle: saline): 98 % of control
- T/C (endpoint: median survival time, dose: 40.0 mg/kg/injection, schedule: Q04DX003 (ip), vehicle: saline): 101 % of control
- T/C (endpoint: median survival time, dose: 80.0 mg/kg/injection, schedule: Q04DX003 (ip), vehicle: saline): 98 % of control

Compound: CCOC(=O)N(C)N=NC
- T/C (endpoint: median survival time, dose: 3.75 mg/kg/injection, schedule: Q01DX005 (ip), vehicle: saline): 110 % of control
- T/C (endpoint: median survival time, dose: 7.5 mg/kg/injection, schedule: Q01DX005 (ip), vehicle: saline): 119 % of control
- T/C (endpoint: median survival time, dose: 10.8 mg/kg/injection, schedule: Q01DX005 (ip), vehicle: saline): 124 % of control
- T/C (endpoint: median survival time, dose: 50.0 mg/kg/injection, schedule: Q01DX005 (ip), vehicle: saline): 86 % of control

Compound: c1ccc(N=C(c2ccccc2)c2ccccc2)cc1
- T/C [12]: 103 % of control
- T/C [13]: 93 % of control
- T/C [14]: 93 % of control

Compound: CC(=O)C1(O)Cc2c(O)c3c(c(O)c2C(OC2CC(N)C(O)C(C)O2)C1)C(=O)c1ccccc1C3=O (configuration not stated)
- T/C (endpoint: mean survival time, dose: 0.03 mg/kg/injection, schedule: Q01DX009 (ip), vehicle: water): 104 % of control
- T/C (endpoint: mean survival time, dose: 0.05 mg/kg/injection, schedule: Q01DX009 (ip), vehicle: water): 110 % of control
- T/C (endpoint: mean survival time, dose: 0.1 mg/kg/injection, schedule: Q01DX009 (ip), vehicle: water): 117 % of control
- T/C (endpoint: mean survival time, dose: 0.4 mg/kg/injection, schedule: Q01DX009 (ip), vehicle: water): 151 % of control
- T/C (endpoint: mean survival time, dose: 0.8 mg/kg/injection, schedule: Q01DX009 (ip), vehicle: water): 92 % of control

Compound: CC(=O)OC1OC(=O)C(C)(C(C)=O)C1C (configuration not stated)
- T/C (endpoint: median survival time, dose: 2.5 mg/kg/injection, schedule: Q01DX009 (ip), vehicle: distilled water + alcohol): 103 % of control
- T/C (endpoint: median survival time, dose: 5.0 mg/kg/injection, schedule: Q01DX009 (ip), vehicle: distilled water + alcohol): 101 % of control
- T/C (endpoint: median survival time, dose: 10.0 mg/kg/injection, schedule: Q01DX009 (ip), vehicle: distilled water + alcohol): 104 % of control
- T/C (endpoint: median survival time, dose: 20.0 mg/kg/injection, schedule: Q01DX009 (ip), vehicle: distilled water + alcohol): 103 % of control

Compound: CC(c1ccccc1)n1cncc1CN1CCOCC1 (configuration not stated)
- T/C (endpoint: mean survival time, dose: 12.5 mg/kg/injection, schedule: Q04DX002 (ip), vehicle: saline with Tween-80): 91 % of control
- T/C (endpoint: mean survival time, dose: 25.0 mg/kg/injection, schedule: Q01DX001 (ip), vehicle: saline with Tween-80): 102 % of control
- T/C (endpoint: mean survival time, dose: 25.0 mg/kg/injection, schedule: Q04DX002 (ip), vehicle: saline with Tween-80): 98 % of control
- T/C (endpoint: mean survival time, dose: 50.0 mg/kg/injection, schedule: Q01DX001 (ip), vehicle: saline with Tween-80): 102 % of control
- T/C (endpoint: mean survival time, dose: 50.0 mg/kg/injection, schedule: Q04DX002 (ip), vehicle: saline with Tween-80): 98 % of control
- T/C [2]: 95 % of control and 98 % of control
- T/C [7]: 95 % of control

Compound: O=C(O)COc1cc(Cl)c(Cl)cc1Cl (tested in a mixture with another compound)
- T/C [7]: 96 % of control
- T/C [8]: 114 % of control

Compound: CC(c1ccccc1)c1ccc(O)cc1 (configuration not stated)
- T/C [12]: 103 % of control
- T/C [13]: 93 % of control
- T/C [14]: 91 % of control
